pIC50: −log10 of the molar value.

In US20170326125A1, “MULTISUBSTITUTED AROMATIC COMPOUNDS AS INHIBITORS OF THROMBIN” (VERSEON CORPORATION, priority 2016, published 2017) one finds IC50 data, which are given here for 37 compounds.

In this assay the target is T1, Human thrombin (Homo sapiens, UniProt P00734).
T1 construct: purchased Haematologic Technologies Inc
As to the kind of experiment: Inhibition of the protease activity of thrombin (chromogenic substrate S-2238). It counts as biochemical. The following applies: inhibition of the protease activity of thrombin; class symbols a/b/c. The protocol:
Compounds described herein can be assayed, by a variety of methods known in the art and described herein, for inhibition of biological activity, e.g., protease activity, of a variety of proteins, e.g., thrombin.
The thrombin activity reported herein (e.g., Table A) was obtained as follows. Human thrombin was obtained from Haematologic Technologies Inc. The chromogenic
Thrombin was assayed in buffer containing 0.05 M Tris (pH 7.4), 0.015 M NaCl and 0.01% PEG-8000. The final concentration of enzyme used was 3 nM thrombin. […] All assays were performed in 96-well microtiter plates at room temperature (RT). […] Inhibitor IC50 values were determined by adding test compound as ten point, three-fold serial dilutions in buffer solution, as known in the art. The plate was read at 10 minutes after substrate addition. The IC50 was calculated by plotting the percent (%) inhibition against compound concentration and fitting the data to a constrained four parameter sigmoidal curve, as known in the art.
One may read the pIC50 as the negative decadic logarithm of the IC50, by convention in mol/L. The low end stands for a large IC50, the high end for a small IC50. Regarding `CCCC(=O)n1nc(-c2ccncc2)nc1NCc1ccc(F)cc1` [Cmpd 80, 1-(5-[(4-fluorophenyl)methyl]amino-3-(pyridin-4-yl)-1H-1,2,4-triazol-1-yl)butan-1-one], the pIC50 was over 7.00. As to `CCC(=O)n1nc(-c2ccncc2)nc1NCc1ccc(F)cc1` [Cmpd 81, 1-(5-[(4-fluorophenyl)methyl]amino-3-(pyridin-4-yl)-1H-1,2,4-triazol-1-yl)propan-1-one], the pIC50 is over 7.00. The same measure for `CC(C)(C)C(=O)n1nc(-c2cccs2)nc1NCc1ccc(F)cc1` [Cmpd 82, 1-(5-[(4-fluorophenyl)methyl]amino-3-(thiophen-2-yl)-1H-1,2,4-triazol-1-yl)-2,2-dimethylpropan-1-one]: over 7.00. Turning to `CCC(=O)n1nc(-c2cccs2)nc1NCc1ccc(F)cc1` [Cmpd 83, 1-(5-[(4-fluorophenyl)methyl]amino-3-(thiophen-2-yl)-1H-1,2,4-triazol-1-yl)propan-1-one], the pIC50 was 6.00 to 7.00. The same measure for `CCC(=O)n1nc(-c2ccccc2)cc1NCc1ccc(F)cc1` [Cmpd 84, 1-(5-[(4-fluorophenyl)methyl]amino-3-phenyl-1H-pyrazol-1-yl)propan-1-one]: under 6.00. On to `CCC(=O)n1nc(-c2ccccc2)c(C)c1NCc1ccc(F)cc1` [Cmpd 85, 1-(5-[(4-fluorophenyl)methyl]amino-4-methyl-3-phenyl-1H-pyrazol-1-yl)propan-1-one], for which the negative-log IC50 (pIC50) is under 6.00. The same measure for `CCC(=O)n1nc(-c2cccnc2)nc1SCc1ccc(F)cc1` [Cmpd 86, 1-(5-[(4-fluorophenyl)methyl]sulfanyl-3-(pyridin-3-yl)-1H-1,2,4-triazol-1-yl)propan-1-one]: over 7.00. Consider `COc1ccc(CNc2nc(-c3ccccn3)nn2C(=O)C(C)C)cc1` [Cmpd 88, 1-(5-[(4-methoxyphenyl)methyl]amino-3-(pyridin-2-yl)-1H-1,2,4-triazol-1-yl)-2-methylpropan-1-one], for which the negative-log IC50 (pIC50) is over 7.00. On to `COc1ccc(CNc2nc(-c3ccccn3)nn2C(=O)Cc2ccccc2)cc1` [Cmpd 89, 1-(5-[(4-methoxyphenyl)methyl]amino-3-(pyridin-2-yl)-1H-1,2,4-triazol-1-yl)-2-phenylethan-1-one], for which the pIC50 is over 7.00. Consider `COc1ccc(CNc2nc(-c3ccccn3)nn2C(=O)CC(C)C)cc1` [Cmpd 90, 1-(5-[(4-methoxyphenyl)methyl]amino-3-(pyridin-2-yl)-1H-1,2,4-triazol-1-yl)-3-methylbutan-1-one], for which the pIC50 was over 7.00. `COc1ccc(CNc2nc(-c3ccccn3)nn2C(=O)CCc2ccccc2)cc1` [Cmpd 91, 1-(5-[(4-methoxyphenyl)methyl]amino-3-(pyridin-2-yl)-1H-1,2,4-triazol-1-yl)-3-phenylpropan-1-one] gave a pIC50 of 6.00 to 7.00. Consider `CCCC(=O)n1nc(-c2ccccn2)nc1NCc1ccc(OC)cc1` [Cmpd 92, 1-(5-[(4-methoxyphenyl)methyl]amino-3-(pyridin-2-yl)-1H-1,2,4-triazol-1-yl)butan-1-one], for which the pIC50 was over 7.00. As to `CCC(=O)n1nc(-c2ccccn2)nc1NCc1ccc(OC)cc1` [Cmpd 93, 1-(5-[(4-methoxyphenyl)methyl]amino-3-(pyridin-2-yl)-1H-1,2,4-triazol-1-yl)propan-1-one], the pIC50 is over 7.00. As to `COc1ccc(CNc2nc(-c3cccnc3)nn2C(=O)C(C)(C)C)cc1` [Cmpd 94, 1-(5-[(4-methoxyphenyl)methyl]amino-3-(pyridin-3-yl)-1H-1,2,4-triazol-1-yl)-2,2-dimethylpropan-1-one], the negative logarithm of the IC50 (pIC50) was over 7.00. The same measure for `COc1ccc(CNc2nc(-c3ccncc3)nn2C(=O)C(C)C)cc1` [Cmpd 95, 1-(5-[(4-methoxyphenyl)methyl]amino-3-(pyridin-4-yl)-1H-1,2,4-triazol-1-yl)-2-methylpropan-1-one]: over 7.00.

In the case of `COc1ccc(CNc2nc(-c3ccncc3)nn2C(=O)Cc2ccccc2)cc1` [Cmpd 96, 1-(5-[(4-methoxyphenyl)methyl]amino-3-(pyridin-4-yl)-1H-1,2,4-triazol-1-yl)-2-phenylethan-1-one], the pIC50 was over 7.00. The value for `COc1ccc(CNc2nc(-c3ccncc3)nn2C(=O)CC(C)C)cc1` [Cmpd 97, 1-(5-[(4-methoxyphenyl)methyl]amino-3-(pyridin-4-yl)-1H-1,2,4-triazol-1-yl)-3-methylbutan-1-one] was over 7.00; that for `COc1ccc(CNc2nc(-c3ccncc3)nn2C(=O)CCc2ccccc2)cc1` [Cmpd 98, 1-(5-[(4-methoxyphenyl)methyl]amino-3-(pyridin-4-yl)-1H-1,2,4-triazol-1-yl)-3-phenylpropan-1-one] was under 6.00; that for `CCCC(=O)n1nc(-c2ccncc2)nc1NCc1ccc(OC)cc1` [Cmpd 99, 1-(5-[(4-methoxyphenyl)methyl]amino-3-(pyridin-4-yl)-1H-1,2,4-triazol-1-yl)butan-1-one] was over 7.00. For `CCC(=O)n1nc(-c2ccncc2)nc1NCc1ccc(OC)cc1` [Cmpd 100, 1-(5-[(4-methoxyphenyl)methyl]amino-3-(pyridin-4-yl)-1H-1,2,4-triazol-1-yl)propan-1-one], the pIC50 is 6.00 to 7.00. Consider `O=C(c1cccc2c1OC(F)(F)O2)n1nc(-c2ccccc2)nc1NCc1ccc(F)cc1` [Cmpd 101, 1-[(2,2-difluoro-2H-1,3-benzodioxol-4-yl)carbonyl]-N-[(4-fluorophenyl)methyl]-3-phenyl-1H-1,2,4-triazol-5-amine], for which the pIC50 was under 6.00. In turn, `O=C(c1cccc2c1OCCO2)n1nc(-c2ccccc2)nc1NCc1ccc(F)cc1` [Cmpd 102, 1-[(2,3-dihydro-1,4-benzodioxin-5-yl)carbonyl]-N-[(4-fluorophenyl)methyl]-3-phenyl-1H-1,2,4-triazol-5-amine] had a pIC50 of over 7.00. Regarding `COc1ccc(C(=O)n2nc(-c3ccccc3F)cc2NCc2ccccc2)c(N)c1` [Cmpd 103, 1-[(2-amino-4-methoxyphenyl)carbonyl]-N-benzyl-3-(2-fluorophenyl)-1H-pyrazol-5-amine], the pIC50 was under 6.00. Regarding `COc1ccc(C(=O)n2nc(-c3ccccn3)nc2NCc2ccccc2)c(N)c1` [Cmpd 104, 1-[(2-amino-4-methoxyphenyl)carbonyl]-N-benzyl-3-(pyridin-2-yl)-1H-1,2,4-triazol-5-amine], the pIC50 is over 7.00. In the case of `COc1ccc(C(=O)n2nc(-c3ccccn3)cc2NCc2ccccc2)c(N)c1` [Cmpd 105, 1-[(2-amino-4-methoxyphenyl)carbonyl]-N-benzyl-3-(pyridin-2-yl)-1H-pyrazol-5-amine], the pIC50 was 6.00 to 7.00. Compound `Cc1ccc(C(=O)n2nc(-c3ccccc3F)cc2NCc2ccccc2)c(N)c1` [Cmpd 106, 1-[(2-amino-4-methylphenyl)carbonyl]-N-benzyl-3-(2-fluorophenyl)-1H-pyrazol-5-amine] showed a pIC50 of under 6.00. The compound `Cc1ccc(C(=O)n2nc(-c3ccccn3)nc2NCc2ccccc2)c(N)c1` [Cmpd 107, 1-[(2-amino-4-methylphenyl)carbonyl]-N-benzyl-3-(pyridin-2-yl)-1H-1,2,4-triazol-5-amine] gave a pIC50 of over 7.00.

Consider `Cc1ccc(C(=O)n2nc(-c3ccccn3)cc2NCc2ccccc2)c(N)c1` [Cmpd 108, 1-[(2-amino-4-methylphenyl)carbonyl]-N-benzyl-3-(pyridin-2-yl)-1H-pyrazol-5-amine], for which the negative logarithm of the IC50 (pIC50) was 6.00 to 7.00. `Nc1ccccc1C(=O)n1nc(-c2ccccn2)nc1NCc1ccccc1` [Cmpd 109, 1-[(2-aminophenyl)carbonyl]-N-benzyl-3-(pyridin-2-yl)-1H-1,2,4-triazol-5-amine] gave a pIC50 of over 7.00. The same measure for `CSc1nc(-c2cccs2)nn1C(=O)c1ccccc1Cl` [Cmpd 110, 1-[(2-chlorophenyl)carbonyl]-5-(methylsulfanyl)-3-(thiophen-2-yl)-1H-1,2,4-triazole]: over 7.00. In the case of `O=C(c1ccccc1Cl)n1nc(-c2ccccn2)nc1NCc1ccc(F)cc1` [Cmpd 111, 1-[(2-chlorophenyl)carbonyl]-N-[(4-fluorophenyl)methyl]-3-(pyridin-2-yl)-1H-1,2,4-triazol-5-amine], the pIC50 is over 7.00. On to `O=C(c1ccccc1Cl)n1nc(-c2ccncc2)nc1NCc1ccc(F)cc1` [Cmpd 112, 1-[(2-chlorophenyl)carbonyl]-N-[(4-fluorophenyl)methyl]-3-(pyridin-4-yl)-1H-1,2,4-triazol-5-amine], for which the pIC50 was over 7.00.

For `O=C(c1ccccc1Cl)n1nc(-c2cccs2)nc1NCc1ccc(F)cc1` [Cmpd 113, 1-[(2-chlorophenyl)carbonyl]-N-[(4-fluorophenyl)methyl]-3-(thiophen-2-yl)-1H-1,2,4-triazol-5-amine], the pIC50 is over 7.00. `O=C(c1ccccc1Cl)n1nc(-c2ccccc2)cc1NCc1ccc(F)cc1` [Cmpd 114, 1-[(2-chlorophenyl)carbonyl]-N-[(4-fluorophenyl)methyl]-3-phenyl-1H-pyrazol-5-amine] had a pIC50 of under 6.00. Regarding `COc1ccccc1C(=O)n1nc(-c2ccccn2)cc1NCc1cccs1` [Cmpd 116, 1-[(2-methoxyphenyl)carbonyl]-3-(pyridin-2-yl)-N-(thiophen-2-ylmethyl)-1H-pyrazol-5-amine], the pIC50 is 6.00 to 7.00. In the case of `COc1ccccc1C(=O)n1nc(-c2ccccn2)nc1NCc1ccsc1` [Cmpd 117, 1-[(2-methoxyphenyl)carbonyl]-3-(pyridin-2-yl)-N-(thiophen-3-ylmethyl)-1H-1,2,4-triazol-5-amine], the pIC50 was over 7.00. `COc1ccccc1C(=O)n1nc(-c2ccccn2)cc1NCc1ccsc1` [Cmpd 118, 1-[(2-methoxyphenyl)carbonyl]-3-(pyridin-2-yl)-N-(thiophen-3-ylmethyl)-1H-pyrazol-5-amine] showed a pIC50 of 6.00 to 7.00.
